Experimental data as given in ChEMBL document CHEMBL2434896, “Carbonic anhydrase inhibitors. Synthesis of heterocyclic 4-substituted pyridine-3-sulfonamide derivatives and their inhibition of the human cytosolic isozymes I and II and transmembrane tumor-associated isozymes IX and XII” (Eur J Med Chem, 2013).
The source made the active and inactive calls. The rule behind the calls is not given here.

Columns and labels:
[1] = tested on: U-251; experiment: Growth inhibition of human U251 cells at 10 uM after 48 hrs by sulforhodamine B assay; assay type: functional; conditions: U-251, 48 h, read-out: GI
[2] = tested on: SNB-75; experiment: Growth inhibition of human SNB75 cells at 10 uM after 48 hrs by sulforhodamine B assay; assay type: functional; conditions: SNB-75, 48 h, read-out: GI
[3] = tested on: SNB-19; experiment: Growth inhibition of human SNB19 cells at 10 uM after 48 hrs by sulforhodamine B assay; assay type: functional; conditions: SNB-19, 48 h, read-out: GI
[4] = tested on: SF-539; experiment: Growth inhibition of human SF539 cells at 10 uM after 48 hrs by sulforhodamine B assay; assay type: functional
[5] = tested on: SF-295; experiment: Growth inhibition of human SF295 cells at 10 uM after 48 hrs by sulforhodamine B assay; assay type: functional
[6] = tested on: SF-268; experiment: Growth inhibition of human SF268 cells at 10 uM after 48 hrs by sulforhodamine B assay; assay type: functional
[7] = tested on: KM12; experiment: Growth inhibition of human KM12 cells at 10 uM after 48 hrs by sulforhodamine B assay; assay type: functional
[8] = tested on: SW-620; experiment: Growth inhibition of human SW620 cells at 10 uM after 48 hrs by sulforhodamine B assay; assay type: functional; conditions: SW-620, 48 h, read-out: GI
[9] = tested on: HT-29; experiment: Growth inhibition of human HT-29 cells at 10 uM after 48 hrs by sulforhodamine B assay; assay type: functional
[10] = tested on: HCT-15; experiment: Growth inhibition of human HCT15 cells at 10 uM after 48 hrs by sulforhodamine B assay; assay type: functional
[11] = tested on: HCT-116; experiment: Growth inhibition of human HCT116 cells at 10 uM after 48 hrs by sulforhodamine B assay; assay type: functional
[12] = tested on: COLO 205; experiment: Growth inhibition of human COLO205 cells at 10 uM after 48 hrs by sulforhodamine B assay; assay type: functional
[13] = tested on: NCI-H522; experiment: Growth inhibition of human NCI-H522 cells at 10 uM after 48 hrs by sulforhodamine B assay; assay type: functional; conditions: NCI-H522, 48 h, read-out: GI
[14] = tested on: NCI-H460; experiment: Growth inhibition of human NCI-H460 cells at 10 uM after 48 hrs by sulforhodamine B assay; assay type: functional
[15] = tested on: NCI-H226; experiment: Growth inhibition of human NCI-H226 cells at 10 uM after 48 hrs by sulforhodamine B assay; assay type: functional
[16] = tested on: HOP-92; experiment: Growth inhibition of human HOP92 cells at 10 uM after 48 hrs by sulforhodamine B assay; assay type: functional; conditions: HOP-92, 48 h, read-out: GI
[17] = tested on: HOP-62; experiment: Growth inhibition of human HOP62 cells at 10 uM after 48 hrs by sulforhodamine B assay; assay type: functional
[18] = tested on: EKVX; experiment: Growth inhibition of human EKVX cells at 10 uM after 48 hrs by sulforhodamine B assay; assay type: functional
[19] = tested on: A549; experiment: Growth inhibition of human A549/ATCC cells at 10 uM after 48 hrs by sulforhodamine B assay; assay type: functional
[20] = tested on: SR; experiment: Growth inhibition of human SR cells at 10 uM after 48 hrs by sulforhodamine B assay; assay type: functional; conditions: read-out: GI
[21] = tested on: RPMI-8226; experiment: Growth inhibition of human RPMI8226 cells at 10 uM after 48 hrs by sulforhodamine B assay; assay type: functional
[22] = tested on: MOLT-4; experiment: Growth inhibition of human MOLT4 cells at 10 uM after 48 hrs by sulforhodamine B assay; assay type: functional; conditions: MOLT-4, 48 h, read-out: GI
[23] = tested on: HL-60(TB); experiment: Growth inhibition of human HL-60(TB) cells at 10 uM after 48 hrs by sulforhodamine B assay; assay type: functional; conditions: HL-60, 48 h, read-out: GI
[24] = tested on: CCRF-CEM; experiment: Growth inhibition of human CCRF-CEM cells at 10 uM after 48 hrs by sulforhodamine B assay; assay type: functional; conditions: read-out: GI
[25] = target: Carbonic anhydrase 9 (Homo sapiens, UniProt Q16790); experiment: Inhibition of human carbonic anhydrase 9 after 15 mins by stopped flow CO2 hydration assay
[26] = tested on: MDA-MB-468; experiment: Growth inhibition of human MDA-MB-468 cells at 10 uM after 48 hrs by sulforhodamine B assay; assay type: functional
[27] = tested on: T47D; experiment: Growth inhibition of human T47D cells at 10 uM after 48 hrs by sulforhodamine B assay; assay type: functional
[28] = tested on: BT-549; experiment: Growth inhibition of human BT549 cells at 10 uM after 48 hrs by sulforhodamine B assay; assay type: functional; conditions: BT-549, 48 h, read-out: GI
[29] = Growth inhibition of human Hs 578T cells at 10 uM after 48 hrs by sulforhodamine B assay; assay type: functional; conditions: read-out: GI
[30] = tested on: MDA-MB-231; experiment: Growth inhibition of human MDA-MB-231 cells at 10 uM after 48 hrs by sulforhodamine B assay; assay type: functional
[31] = tested on: MCF7; experiment: Growth inhibition of human MCF7 cells at 10 uM after 48 hrs by sulforhodamine B assay; assay type: functional; conditions: MCF7, 48 h, read-out: GI
[32] = tested on: DU-145; experiment: Growth inhibition of human DU145 cells at 10 uM after 48 hrs by sulforhodamine B assay; assay type: functional
[33] = tested on: TK-10; experiment: Growth inhibition of human TK10 cells at 10 uM after 48 hrs by sulforhodamine B assay; assay type: functional
[34] = tested on: SN12C; experiment: Growth inhibition of human SN12C cells at 10 uM after 48 hrs by sulforhodamine B assay; assay type: functional; conditions: read-out: GI
[35] = tested on: RXF 393; experiment: Growth inhibition of human RXF393 cells at 10 uM after 48 hrs by sulforhodamine B assay; assay type: functional
[36] = tested on: CAKI-1; experiment: Growth inhibition of human CAKI-1 cells at 10 uM after 48 hrs by sulforhodamine B assay; assay type: functional
[37] = tested on: ACHN; experiment: Growth inhibition of human ACHN cells at 10 uM after 48 hrs by sulforhodamine B assay; assay type: functional
[38] = tested on: 786-0; experiment: Growth inhibition of human 786-0 cells at 10 uM after 48 hrs by sulforhodamine B assay; assay type: functional
[39] = tested on: SK-OV-3; experiment: Growth inhibition of human SKOV3 cells at 10 uM after 48 hrs by sulforhodamine B assay; assay type: functional
[40] = tested on: OVCAR-8; experiment: Growth inhibition of human OVCAR8 cells at 10 uM after 48 hrs by sulforhodamine B assay; assay type: functional
[41] = tested on: OVCAR-5; experiment: Growth inhibition of human OVCAR5 cells at 10 uM after 48 hrs by sulforhodamine B assay; assay type: functional
[42] = tested on: OVCAR-3; experiment: Growth inhibition of human OVCAR3 cells at 10 uM after 48 hrs by sulforhodamine B assay; assay type: functional
[43] = tested on: UACC-62; experiment: Growth inhibition of human UACC62 cells at 10 uM after 48 hrs by sulforhodamine B assay; assay type: functional; conditions: UACC-62, 48 h, read-out: GI
[44] = tested on: UACC-257; experiment: Growth inhibition of human UACC257 cells at 10 uM after 48 hrs by sulforhodamine B assay; assay type: functional
[45] = tested on: SK-MEL-5; experiment: Growth inhibition of human SK-MEL-5 cells at 10 uM after 48 hrs by sulforhodamine B assay; assay type: functional; conditions: SK-MEL-5, 48 h, read-out: GI
[46] = tested on: SK-MEL-28; experiment: Growth inhibition of human SK-MEL-28 cells at 10 uM after 48 hrs by sulforhodamine B assay; assay type: functional, cell-based
[47] = tested on: SK-MEL-2; experiment: Growth inhibition of human SK-MEL-2 cells at 10 uM after 48 hrs by sulforhodamine B assay; assay type: functional
[48] = tested on: MDA-MB-435; experiment: Growth inhibition of human MDA-MB-435 cells at 10 uM after 48 hrs by sulforhodamine B assay; assay type: functional
[49] = tested on: M14; experiment: Growth inhibition of human M14 cells at 10 uM after 48 hrs by sulforhodamine B assay; assay type: functional; conditions: M14, 48 h, read-out: GI

`Cc1nn(-c2ccncc2S(N)(=O)=O)c(C)c1C` gave an inhibition of growth at 10 µM [1] of 1%, an inhibition of growth at 10 µM [2] of 6% and an inhibition of growth at 10 µM [3] of 1%. The “growth inhibition (GI)” value [4] was “inactive”, the “growth inhibition (GI)” value [5] was “inactive” and the “growth inhibition (GI)” value [6] was “inactive”. The “growth inhibition (GI)” value [7] was “inactive”, the inhibition of growth at 10 µM [8] was 12% and the “growth inhibition (GI)” value [9] was “inactive”. The “growth inhibition (GI)” value [10] was “inactive”, the “growth inhibition (GI)” value [11] was “inactive” and the “growth inhibition (GI)” value [12] was “inactive”. For the same molecule, the inhibition of growth at 10 µM [13] was 3%, the “growth inhibition (GI)” value [14] was “inactive” and the “growth inhibition (GI)” value [15] was “inactive”. For the same molecule, the inhibition of growth at 10 µM [16] was 25%, the “growth inhibition (GI)” value [17] was “inactive” and the “growth inhibition (GI)” value [18] was “inactive”. The “growth inhibition (GI)” value [19] was “inactive”, the inhibition of growth at 10 µM [20] was 16% and the “growth inhibition (GI)” value [21] was “inactive”. The inhibition of growth at 10 µM [22] was 5%, the inhibition of growth at 10 µM [23] was 9% and the inhibition of growth at 10 µM [24] was 6%. For the same molecule, the Ki [25] was 23.1 nM, the “growth inhibition (GI)” value [26] was “inactive” and the “growth inhibition (GI)” value [27] was “inactive”. The inhibition of growth at 10 µM [28] was 4%, the inhibition of growth at 10 µM [29] was 20% and the “growth inhibition (GI)” value [30] was “inactive”. For the same molecule, the inhibition of growth at 10 µM [31] was 4%, the “growth inhibition (GI)” value [32] was “inactive” and the “growth inhibition (GI)” value [33] was “inactive”. For the same molecule, the inhibition of growth at 10 µM [34] was 9%, the “growth inhibition (GI)” value [35] was “inactive” and the “growth inhibition (GI)” value [36] was “inactive”. The “growth inhibition (GI)” value [37] was “inactive”, the “growth inhibition (GI)” value [38] was “inactive” and the “growth inhibition (GI)” value [39] was “inactive”. The “growth inhibition (GI)” value [40] was “inactive”, the “growth inhibition (GI)” value [41] was “inactive” and the “growth inhibition (GI)” value [42] was “inactive”. For the same molecule, the inhibition of growth at 10 µM [43] was 3%, the “growth inhibition (GI)” value [44] was “inactive” and the inhibition of growth at 10 µM [45] was 3%. For the same molecule, the “growth inhibition (GI)” value [46] was “inactive”, the “growth inhibition (GI)” value [47] was “inactive” and the “growth inhibition (GI)” value [48] was “inactive”. It also gave an inhibition of growth at 10 µM [49] of 2%.
